Measured values from the NIST ThermoML archive (doi:10.1021/je800783a).

Test: xn = mol fraction of the nth substance listed
Conditions: 101 kPa, Liquid, Vibrating tube method

CCCn1cc[n+](C)c1.N[C@@H](CCC(=O)O)C(=O)[O-] + O
mass density [kg/m3]
Conditions | 283.15 K | 288.15 K | 293.15 K | 298.15 K | 303.15 K | 308.15 K
x1 = 0.039 | 1090.4 | 1088.42 | 1086.11 | 1083.72 | 1081.22 | 1078.64
x1 = 0.0455 | 1100.76 | 1098.39 | 1095.92 | 1093.38 | 1090.77 | 1088.06
x1 = 0.0497 | 1106.9 | 1104.45 | 1101.92 | 1099.3 | 1096.64 | 1093.89
x1 = 0.0683 | 1129.12 | 1126.36 | 1123.56 | 1120.71 | 1117.81 | 1114.86
x1 = 0.0783 | 1139.04 | 1136.21 | 1133.31 | 1130.35 | 1127.36 | 1124.33
x1 = 0.0894 | 1147.7 | 1144.79 | 1141.8 | 1138.78 | 1135.72 | 1132.63
x1 = 0.0975 | 1153.37 | 1150.37 | 1147.34 | 1144.3 | 1141.18 | 1138.07
x1 = 0.1235 | 1169.78 | 1166.6 | 1163.35 | 1160.15 | 1156.96 | 1153.81
x1 = 0.1451 | 1178.22 | 1175.07 | 1172.01 | 1168.85 | 1165.64 | 1162.49
x1 = 0.1925 | 1191.85 | 1188.67 | 1185.47 | 1182.21 | 1178.9 | 1175.73
x1 = 0.239 | 1201.76 | 1198.15 | 1194.83 | 1191.61 | 1188.36 | 1185.05
x1 = 0.2888 | 1208.1 | 1204.86 | 1201.46 | 1197.83 | 1194.59 | 1191.36
x1 = 0.3294 | 1211.85 | 1208.49 | 1205.08 | 1201.85 | 1198.55 | 1195.3
x1 = 0.3767 | 1215 | 1211.68 | 1208.49 | 1205.25 | 1201.91 | 1198.71
x1 = 0.4265 | 1218.6 | 1214.72 | 1211.93 | 1209.67 | 1206.45 | 1203.15
x1 = 0.4713 | 1220.69 | 1217.33 | 1213.9 | 1210.64 | 1207.32 | 1203.95
x1 = 0.5112 | 1221.72 | 1218.47 | 1215.18 | 1211.78 | 1208.42 | 1205.15
x1 = 0.5427 | 1223.07 | 1220.26 | 1216.93 | 1213.92 | 1210.64 | 1207.34
